From patent US6166049A, “Use of an antagonist of PPARα and PPARγ for the treatment of syndrome X” (SmithKline Beecham P.L.C., priority 1996, dated 2000)
pEC50: −log10 of the molar value.

What was measured:
C57 Bl/KsJ db/db mouse [1] = assay: Serum lipids in the genetically diabetic C57 Bl/KsJ db/db mouse; assay type: in vivo; settings: 0.3 umol/kg body wt, dietary admixture, after 14 days, *** p < 0.001, mean ± SD
Method: (§1) 2) Determination of Compound Efficacy on Blood Glucose and Plasma Lipids in the C57 Bl/KsJ db/db Mouse
(§2) This is paralleled by glycosuria and polyuria with a compensatory increase in water intake. Circulating serum triglycerides and free fatty acids are also elevated.
(§3) Compounds are administered by dietary admixture (powdered RM3 diet) for 14 days and blood glucose measured in samples taken from the tail vein of conscious non-fasted mice at appropriate intervals during the treatment period. After the 14 day treatment period, mice are killed by cervical dislocation and blood obtained from the severed jugular veins. Triglyceride and non-esterified fatty acids are measured in samples of serum obtained by centrifugation.

C57 Bl/KsJ db/db mouse [2] = assay: Blood glucose in the C57 Bl/KsJ db/db mouse; assay type: in vivo; settings: mean ± SD, n = 9-10; for Blood glucose, pre-dose: treated group before dosing (baseline)
Method: as §1, §2, §3

human PPARγ = biological target: T1, human PPARγ (Homo sapiens, UniProt P37231); assay: hPPARγ agonist activity, transactivation reporter gene assay; assay type: cell-based; settings: read-out: EC50 for activation of human PPARγ
T1 construct: expressed in transfected cells
T1 sequence (P37231 173-476 isoform P37231-2): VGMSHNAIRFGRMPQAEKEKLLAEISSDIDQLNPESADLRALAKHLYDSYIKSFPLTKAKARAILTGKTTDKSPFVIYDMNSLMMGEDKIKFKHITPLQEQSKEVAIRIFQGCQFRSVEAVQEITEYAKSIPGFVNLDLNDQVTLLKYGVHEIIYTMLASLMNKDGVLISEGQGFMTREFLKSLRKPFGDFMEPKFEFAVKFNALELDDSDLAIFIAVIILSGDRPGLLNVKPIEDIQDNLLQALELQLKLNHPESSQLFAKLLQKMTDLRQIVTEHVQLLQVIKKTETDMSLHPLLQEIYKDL
Text: (§4) PPARα and γ agonist activity may be assessed by use of the methodology, or similar methodology, to that disclosed by Lehmann et al: Journal of Biological Chem., 270, 12953-12956 (1995).
In one aspect PPARγ agonist compounds are those which stimulate a PPARγ chimeric receptor containing the PPAR gamma ligand binding site linked to a suitable reporter gene construct such as luciferase or chloramphenicol acetyltransferase (CAT). This activity can be identified by using the methods of Lehmann et al. J Biol. Chem., ibid.
(b) PPARγ agonist activity by detecting stimulation of a PPARγ chimeric receptor containing the PPAR gamma ligand binding site linked to a suitable reporter gene construct such as luciferase or chloramphenicol acetyltransferase (CAT).
A suitable PPARγ chimeric receptor comprises the amino acids of the ligand binding domain, for example amino acids 173-476, of the human PPARγ receptor fused to amino acids 1-147 (DNA binding domain) of the gal 4 yeast transcription factor.
(§5) A suitable reporter gene construct is a luciferase or chloramphenicol acetyltransferase (CAT).
A suitable luciferase reporter gene construct contains gal 4 DNA binding elements in HEK-293 cells. […]
(§6) Compound agonist effects at human PPARα and PPARγ were assessed using a transactivation reporter gene assay, based on that described by Lehman et al. (1995) J Biol Chem 270, 12953-12956.

human PPARα = biological target: T2, human PPARα (Homo sapiens, UniProt Q07869); assay: hPPARα agonist activity, transactivation reporter gene assay; assay type: cell-based; settings: read-out: EC50 for activation of human PPARα
T2 construct: expressed in transfected cells
T2 sequence (Q07869 239-466 limits assumed): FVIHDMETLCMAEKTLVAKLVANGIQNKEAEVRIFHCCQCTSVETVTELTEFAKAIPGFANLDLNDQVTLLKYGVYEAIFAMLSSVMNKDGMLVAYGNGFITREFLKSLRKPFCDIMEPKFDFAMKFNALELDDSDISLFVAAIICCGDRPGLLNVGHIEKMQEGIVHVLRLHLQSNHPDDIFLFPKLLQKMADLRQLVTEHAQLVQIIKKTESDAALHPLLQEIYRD
Text: as §4
In one aspect PPARα agonist compounds are those which stimulate a PPAR alpha chimeric receptor consisting of the PPAR alpha ligand binding site linked to a suitable reporter gene construct such as luciferase or chloramphenicol acetyltransferase (CAT). This activity can be identified by using the methods outlined by Lehmann et al., ibid.
(a) PPARα agonist activity by detecting stimulation of a PPAR alpha chimeric receptor consisting of the PPAR alpha ligand binding site linked to a suitable reporter gene construct; and
A suitable PPARα chimeric receptor comprises the amino acids of the ligand binding domain, for example amino acids 281-468, of the human PPARα, fused to amino acids 1-147 (DNA binding domain) of the gal 4 yeast transcription factor.
as §5
A suitable luciferase reporter gene construct contains gal 4 DNA binding elements in HEK-293 cells.
1) Determination of hPPARα and hPPAR-γ Agonist Activity
as §6

CN(CCOc1ccc(C[C@H](OCC(F)(F)F)C(=O)O)cc1)c1nc2ccccc2o1 [(S)-3-[4-[2-[N-(2-benzoxazolyl)-N-methylamino]ethoxy]phenyl]-2-(2,2,2-trifluoroethoxy)propanoic acid]
Serum non-esterified fatty acids (C57 Bl/KsJ db/db mouse [1]; control 2.58 ± 0.45): 1.28 ± 0.15 mmol/L
Serum triglycerides (C57 Bl/KsJ db/db mouse [1]; control 3.78 ± 1.34): 2.58 ± 0.45 mmol/L
Blood glucose, post dose (13 days) (C57 Bl/KsJ db/db mouse [2]; EXPT I, dietary admixture, 13 days, control 34.0 ± 7.9, *** p < 0.001): 11.0 ± 3.6 mmol/L
Blood glucose, pre-dose (C57 Bl/KsJ db/db mouse [2]; EXPT I, control 15.5 ± 3.7): 15.6 ± 4.0 mmol/L
Blood glucose, Day 1 (C57 Bl/KsJ db/db mouse [2]; EXPT II, dietary admixture, Day 1, control 17.2 ± 3.7): 14.1 ± 3.7 mmo/l
Blood glucose, Day 2 (C57 Bl/KsJ db/db mouse [2]; EXPT II, dietary admixture, Day 2, control 19.9 ± 2.7, ** p < 0.01): 15.0 ± 3.4 mmo/l
Blood glucose, Day 3 (C57 Bl/KsJ db/db mouse [2]; EXPT II, dietary admixture, Day 3, control 20.2 ± 3.9, *** p < 0.001): 12.2 ± 5.1 mmo/l
Blood glucose, Day 5 (C57 Bl/KsJ db/db mouse [2]; EXPT II, dietary admixture, Day 5, control 21.2 ± 1.9, *** p < 0.001): 11.3 ± 3.6 mmo/l
Blood glucose, Day 7 (C57 Bl/KsJ db/db mouse [2]; EXPT II, dietary admixture, Day 7, control 23.4 ± 2.0, *** p < 0.001): 11.7 ± 3.7 mmo/l
Blood glucose, pre-dose (C57 Bl/KsJ db/db mouse [2]; EXPT II, control 16.5 ± 2.9): 16.2 ± 4.3 mmo/l
pEC50 (human PPARγ): 7.15
pEC50 (human PPARα): 5.60
